{"source": "patent US12297293B2", "about": "“Peptide compounds targeting PD-1 receptor as well as preparation and applications thereof” (NANTONG UNIVERSITY, priority 2021, dated 2025)", "key": {"DRG neurons": {"system": "DRG neurons", "assay": "DRG neuronal calcium imaging experiment", "format": "cell-based, ICR mice", "conditions": "DRG neurons pretreated with 1 nM; high K+ solution; Fluo-4/AM, laser confocal", "from_the_text": "The inhibitory effect of compounds 1-5 on pain signaling was characterized by DRG neuronal calcium imaging, comprising the following steps:\nperforming acute isolation on 3-week-old female ICR mice, and extracting DRG in a sterile bench; lysing sequentially by collagenase A and trypsin; terminating trypsin lysis with a complete medium containing serum; centrifuging at 800r, discarding supernatant, and adding Neurobasal medium (containing 2% B27, Clutanine 1%, and 1% penicillin-streptomycin double antibody solution) and thoroughly mixing; then culturing in pre-prepared Petri dishes lined with PDL for 48 h; labeling DRG neurons with Flou-4/AM prior to the experiment, and pre-treating with different doses of the compounds 1-5/equivalent volume of HBSS before stimulating the DRG neurons with high K+ solution; and then detecting changes of intracellular free calcium ion concentration of DRG neurons under laser confocal."}, "[1]": {"system": "formalin-induced inflammatory pain", "assay": "Formalin-induced inflammatory pain test", "format": "in vivo, ICR male mice", "description": "According to the present invention, placing ICR male mice in a weight range of 25-30 g in an observation room for 15 min, and injecting intrathecally with different doses of the compound 4 (5 nmol, 10 nmol, 30 nmol) or saline; after 5 min, injecting subcutaneously with 5% formalin (20 μl) through the plantar surface of the foot, and then immediately sending to the observation room; counting an accumulated time of pain behaviors (licking, biting, and flinging the injected foot) during the time period of 0-10 min and 10-45 min, respectively.\n0-10 min after formalin injection is a phase I, which is mainly triggered by direct activation of injurious neurons; and 10-35 min is phase II, which is mainly triggered by formalin-induced inflammatory response."}, "[2]": {"system": "acetic acid-induced visceral pain", "assay": "Acetic acid-induced visceral pain (writhing) test", "format": "in vivo, ICR male mice", "description": "According to the present invention, placing ICR male mice in a weight range of 25-30 g in an observation room for 15 min, and injecting intrathecally with different doses of the compound 4 (5 nmol, 10 nmol, 30 nmol) or saline; after 5 min, injecting intraperitoneally with 0.6% glacial acetic acid solution (10 mL/kg), and then sending to the observation room; counting the number of body writhing within 20 min.\nThe experimental results are shown in FIG. 4, the number of writhing in mice decreased with the increase of the administered dose. […] Intrathecally injected at a dose of 30 nmol, the compound 4 inhibited the writhing behavior of mice by 63%."}}, "note": "Ends that are not written are not given here.", "data": [{"sequence": "SYGGADYKR [compound 4]", "values": [{"measurement": "inhibitory effect on the increase of intracellular Ca2+ concentration induced by high K+", "setting": "DRG neurons", "result": "significant inhibitory effect"}, {"measurement": "pain behavior (licking, biting and flinging the injected foot) in both phases", "setting": "[1]; intrathecal 5, 10, 30 nmol, 5% formalin 20 μl plantar, phase I and phase II, vs control group", "result": "significantly shortened"}, {"measurement": "ED50 (median effective dose) for pain in phase II", "setting": "[1]; intrathecal injection, formalin phase II", "result": "6.28 (5.34-7.39) nmol"}, {"measurement": "number of abdominal writhing", "setting": "[2]; intrathecal 5, 10, 30 nmol, 0.6% acetic acid i.p. 10 mL/kg, writhing within 20 min", "result": "significantly reduce the number of abdominal writhing in mice in a dose-dependent manner"}, {"measurement": "inhibition of writhing behavior", "setting": "[2]; intrathecal dose of 30 nmol", "result": 63, "unit": "%"}, {"measurement": "ED50", "setting": "[2]; intrathecal injection, acetic acid writhing", "result": "13.5 (11.88-15.34) nmol"}]}]}
